Experimental data from article PMC7897990, “TriTOX: A novel Trichomonas vaginalis assay platform for high-throughput screening of compound libraries” (International Journal for Parasitology: Drugs and Drug …, 2021).
Read-outs that look alike come from different tables or passages of the source. Non-standard residues stand in square brackets, D forms with d. Residues, ends and D or L forms follow the SMILES beside them. Phe(ol) = N[C@H](CO)Cc1ccccc1; Aib = CC(C)(N)C(=O)O

Assays:
[1] = system: Trichomonas vaginalis G3 trophozoites; test: microbe, parasite or virus in culture; settings: 48 h
[2] = system: nontumorigenic neonatal foreskin fibroblast (NFF) cell line
[3] = system: Trichomonas vaginalis G3 trophozoites; settings: for T.vaginalis_Absorbance_Rep1: replicate 1, raw absorbance; for T.vaginalis_Absorbance_Rep2: replicate 2, raw absorbance
[4] = read-out: T.vaginalis_%inb_Rep1
[5] = read-out: T.vaginalis_%inb_Rep2
[6] = NFF_NS1 screen 5 µg/mL, single concentration
[7] = HTS single concentration, parasite screen 1 µg/mL, replicate 1
[8] = HTS single concentration, parasite screen 1 µg/mL, replicate 2
[9] = NFF_NS1 screen at 5 µg/mL, NFF cells
[10] = parasite screen at 1 µg/mL, replicate 1
[11] = parasite screen at 1 µg/mL, replicate 2
[12] = replicate 1, parasite screen at 1 µg/mL
[13] = replicate 2, parasite screen at 1 µg/mL
[14] = NFF fibroblasts, single concentration 5 µg/mL
[15] = HTS replicate 1, parasite screen 1 µg/mL
[16] = HTS replicate 2, parasite screen 1 µg/mL
[17] = NFF fibroblast screen at 5 µg/mL, A = active, I = inactive
[18] = HTS, parasite screen at 1 µg/mL, replicate 1
[19] = HTS, parasite screen at 1 µg/mL, replicate 2
[20] = HTS, parasite screen at 1 µg/mL

C=C[C@]1(C)C[C@@H](OC(=O)CSC(C)(C)CNC(=O)[C@H](N)C(C)C)[C@]2(C)[C@H](C)CC[C@]3(CCC(=O)[C@H]32)[C@@H](C)[C@@H]1O [Valnemulin]
inhibition of growth at 1 µg/mL [1, 4]: 8.39%
inhibition of growth at 1 µg/mL [1, 5]: 8.96%

CC[C@@H]1/C=C(\C)C[C@H](C)C[C@H](OC)[C@H]2O[C@@](O)(C(=O)C(=O)N3CCCC[C@H]3C(=O)O[C@H](/C(C)=C/[C@@H]3CC[C@H](Cl)[C@H](OC)C3)[C@H](C)[C@@H](O)CC1=O)[C@H](C)C[C@@H]2OC [Pimecrolimus]
inhibition of growth at 1 µg/mL [1, 4]: 13%
inhibition of growth at 1 µg/mL [1, 5]: 14%

CC1=C\[C@@H](O)CC(=O)Cc2nc(co2)C(=O)N2CCC=C2C(=O)O[C@H](C(C)C)[C@H](C)/C=C/C(=O)NC\C=C\1 [Ostreogrycin A]
inhibition of growth at 1 µg/mL [1, 4]: 13.9%
inhibition of growth at 1 µg/mL [1, 5]: 14.5%

COC(=O)[C@@H]1c2cc3c(c(O)c2[C@@H](O[C@@H]2O[C@@H](C)[C@H](OC)[C@@](C)(OC)[C@H]2OC)C[C@]1(C)O)C(=O)c1c(O)cc2c(c1C3=O)O[C@@H]1O[C@@]2(C)[C@H](O)[C@@H](N(C)C)[C@@H]1O [Nogalamycin]
inhibition of growth at 1 µg/mL [1, 4]: 12.8%
inhibition of growth at 1 µg/mL [1, 5]: 13.3%

O=C(O)/C=C/c1c[nH]cn1 [Urocanic acid]
inhibition of growth at 1 µg/mL [1, 4]: 8.39%
inhibition of growth at 1 µg/mL [1, 5]: 13.2%

CC[C@H]1OC(=O)C[C@@H](O)[C@H](C)[C@@H](O[C@@H]2O[C@H](C)[C@@H](O)[C@H](N(C)C)[C@H]2O)[C@@H](CCN2CCCCC2)C[C@@H](C)C(=O)/C=C/C(C)=C/[C@@H]1CN1CCCCC1 [Tildipirosin]
inhibition of growth at 1 µg/mL [1, 4]: 7.13%
inhibition of growth at 1 µg/mL [1, 5]: 12.7%

CO[C@@H]1[C@@H](OC(N)=O)[C@@H](O)[C@H](Oc2ccc3c(O)c(NC(=O)c4ccc(O)c(CC=C(C)C)c4)c(=O)oc3c2C)OC1(C)C [Novobiocin]
inhibition of growth at 1 µg/mL [1, 4]: 4.51%
inhibition of growth at 1 µg/mL [1, 5]: 4.68%

CC(=O)NC(C)(C)C(=O)N1CCC[C@H]1C(=O)NC(C)(C)C(=O)N[C@@H](C)C(=O)NC(C)(C)C(=O)N[C@@H](C)C(=O)N[C@@H](CCC(N)=O)C(=O)NC(C)(C)C(=O)N[C@H](C(=O)NC(C)(C)C(=O)NCC(=O)N[C@@H](CC(C)C)C(=O)NC(C)(C)C(=O)N1CCC[C@H]1C(=O)N[C@H](C(=O)NC(C)(C)C(=O)NC(C)(C)C(=O)N[C@@H](CCC(N)=O)C(=O)N[C@@H](CCC(N)=O)C(=O)N[C@H](CO)Cc1ccccc1)C(C)C)C(C)C [BIA-A1543] (Ac-[Aib]P[Aib]A[Aib]AQ[Aib]V[Aib]GL[Aib]PV[Aib][Aib]QQ[Phe(ol)])
NFF_Activity [2, 6]: I (otherwise these were reported as inactive (I))
T.vaginalis_%inb_Rep1 [3, 7]: 13.73%
T.vaginalis_%inb_Rep2 [3, 8]: 13.74%

CSC[S@@+]([O-])CC(CO)NC(=O)/C=C/c1c(C)[nH]c(=O)[nH]c1=O (stereo partly shown) [BIA-S1798]
NFF_Activity [2, 9]: A (active (A) compounds having >25% inhibitory activity)
T.vaginalis_%inb_Rep1 [3, 10]: 68.56%
T.vaginalis_%inb_Rep2 [3, 11]: 88.33%

Cc1cc(OC(=O)c2c(C)cc(O)cc2O)cc(O)c1C(=O)O [BIA-L1669]
NFF_Activity ([2]; NFF cells, screen at 5 µg/mL): I (otherwise these were reported as inactive (I))
T.vaginalis_%inb_Rep1 [3, 12]: 11.51%
T.vaginalis_%inb_Rep2 [3, 13]: 3.53%

COc1cc2c(c3oc(=O)c4c(c13)CCC4=O)[C@@H]1CCO[C@@H]1O2 [BIA-A1233]
NFF_Activity [2, 6]: I (otherwise these were reported as inactive (I))
T.vaginalis_%inb_Rep1 [3, 7]: 13.46%
T.vaginalis_%inb_Rep2 [3, 8]: 11.14%

O=C(O)CC[N+](=O)[O-] [Nitropropionic acid, 3-]
NFF_Activity [2, 14]: I (otherwise these were reported as inactive (I))
T.vaginalis_%inb_Rep1 [3, 15]: 18.00%
T.vaginalis_%inb_Rep2 [3, 16]: 11.87%

C[C@@]12CCC[C@@]34CCC[C@@H](C=C[C@H]1CC3)N42 [Porantherine]
NFF_Activity [2, 14]: I (otherwise these were reported as inactive (I))
T.vaginalis_%inb_Rep1 [3, 15]: 9.49%
T.vaginalis_%inb_Rep2 [3, 16]: 15.78%

CN(C)C1C(=O)C(C(N)=O)=C(O)C2(O)C(=O)CC(C3(C)OC(=O)c4c(O)ccc(Cl)c43)CC12 (stereo not shown) [BIA-I1656]
NFF_Activity ([2]; NFF cells, screen at 5 µg/mL): I (otherwise these were reported as inactive (I))
T.vaginalis_%inb_Rep1 [3, 12]: 15.87%
T.vaginalis_%inb_Rep2 [3, 13]: 12.89%

CC1OC(OC2C(CO)OC(OC3C(CO)OC(O)C(O)C3O)C(O)C2O)C(O)C(O)C1NC1C=C(CO)C(O)C(O)C1O (stereo not shown) [BIA-A1231]
NFF_Activity [2, 6]: I (otherwise these were reported as inactive (I))
T.vaginalis_%inb_Rep1 [3, 7]: 14.16%
T.vaginalis_%inb_Rep2 [3, 8]: 6.22%

CCC1OC(=O)CC(O)C(C)C(OC2OC(C)C(O)C(N(C)C)C2O)C(CCN2CC(C)CC(C)C2)CC(C)C(=O)C=CC(C)=CC1COC1OC(C)C(O)C(OC)C1OC.O=P(O)(O)O (stereo not shown) [Tilmicosin phosphate]
NFF_Activity [2, 17]: I (otherwise these were reported as inactive (I))
T.vaginalis_%inb_Rep1 [3, 18]: 8.60%
T.vaginalis_%inb_Rep2 [3, 19]: 12.37%

CN1CCC2(c3cccc4c3NC3N(C)CCC43C34CCN(C)C3Nc3ccccc34)c3ccccc3NC12 (stereo not shown) [BIA-H1941]
NFF_Activity ([2]; NFF cells, screen at 5 µg/mL): A (active (A) compounds having >25% inhibitory activity)
T.vaginalis_%inb_Rep1 [3, 12]: 7.39%
T.vaginalis_%inb_Rep2 [3, 13]: 6.28%

COC(=O)C1(O)CC2OC1(C)n1c3ccccc3c3c4c(c5c6ccccc6n2c5c31)C(=O)NC4 (stereo not shown) [BIA-K1225]
NFF_Activity ([2]; NFF cells, screen at 5 µg/mL): A (active (A) compounds having >25% inhibitory activity)
T.vaginalis_%inb_Rep1 [3, 12]: 61.16%
T.vaginalis_%inb_Rep2 [3, 13]: 66.84%

CC(=O)O[C@@H]1[C@@H]2O[C@H]2[C@@](C)(O)C(=O)[C@@H](C)C/C=C\[C@H]2[C@H](O)C(C)=C(C)[C@H]3[C@H](Cc4ccccc4)NC(=O)[C@@]123 [Epoxycytochalasin C, 19,20-]
NFF_Activity ([2]; NFF_NS1 screen at 5 µg/mL): I (otherwise these were reported as inactive (I))
T.vaginalis_%inb_Rep1 [3, 18]: 12.33%
T.vaginalis_Absorbance_Rep1 [3, 20]: 0.938
T.vaginalis_%inb_Rep2 [3, 19]: 16.20%
T.vaginalis_Absorbance_Rep2 [3, 20]: 0.844

CC[C@H]1/C=C/C=C/C[C@@H](C)[C@H](O)[C@@](C)(O)C(=O)[C@@H](C)[C@H](O)[C@@H](C)C(=O)[C@@H](C)[C@H](O)[C@@H](C)/C=C/C(=O)O[C@@H]2[C@H](C)[C@H](CC1)O[C@@]1(O[C@@H](C[C@@H](C)O)[C@@H](C)CC1=O)[C@H]2C [Oligomycin B]
NFF_Activity [2, 14]: I (otherwise these were reported as inactive (I))
T.vaginalis_%inb_Rep1 [3, 15]: 12.98%
T.vaginalis_%inb_Rep2 [3, 16]: 13.09%

Fulvic acid
NFF_Activity ([2]; NFF_NS1 screen at 5 µg/mL): I (otherwise these were reported as inactive (I))
T.vaginalis_%inb_Rep1 [3, 18]: 12.65%
T.vaginalis_Absorbance_Rep1 [3, 20]: 0.944
T.vaginalis_%inb_Rep2 [3, 19]: 4.34%
T.vaginalis_Absorbance_Rep2 [3, 20]: 0.68

CCCCCCCCCCCCCCCCCC(=O)N[C@H]1CCOC1=O [Octadecanoyl-L-homoserine lactone]
NFF_Activity [2, 14]: I (otherwise these were reported as inactive (I))
T.vaginalis_%inb_Rep1 [3, 15]: 12.02%
T.vaginalis_%inb_Rep2 [3, 16]: 13.47%

CC[C@H]1OC(=O)[C@H](C)[C@@H](O[C@H]2C[C@@](C)(O)[C@@H](O)[C@H](C)O2)[C@H](C)[C@@H](O[C@@H]2O[C@H](C)C[C@H](N(C)C)[C@H]2O)[C@](C)(O)C[C@@H](C)C(=O)[C@H](C)[C@@H](O)[C@]1(C)O [Erythromycin C]
NFF_Activity ([2]; NFF_NS1 screen at 5 µg/mL): I (otherwise these were reported as inactive (I))
T.vaginalis_%inb_Rep1 [3, 18]: 5.17%
T.vaginalis_Absorbance_Rep1 [3, 20]: 0.805
T.vaginalis_%inb_Rep2 [3, 19]: 6.87%
T.vaginalis_Absorbance_Rep2 [3, 20]: 0.715

COc1ccc2c(c1OC)C(=O)O[C@@H]2[C@H]1c2cc3c(cc2CCN1C)OCO3 [BIA-H1954]
NFF_Activity ([2]; NFF cells, screen at 5 µg/mL): I (otherwise these were reported as inactive (I))
T.vaginalis_%inb_Rep1 [3, 12]: 11.27%
T.vaginalis_%inb_Rep2 [3, 13]: 6.40%

CC(=O)OC[C@]12[C@H](O)C(=O)C(C)=C[C@H]1O[C@@H]1[C@H](O)C[C@@]2(C)[C@]12CO2 [BIA-A1922]
NFF_Activity [2, 6]: I (otherwise these were reported as inactive (I))
T.vaginalis_%inb_Rep1 [3, 7]: 7.13%
T.vaginalis_%inb_Rep2 [3, 8]: 15.54%

COc1cc(/C=C/C(=O)O)cc(OC)c1O [BIA-S1730]
NFF_Activity [2, 9]: I (otherwise these were reported as inactive (I))
T.vaginalis_%inb_Rep1 [3, 10]: 9.02%
T.vaginalis_%inb_Rep2 [3, 11]: 14.02%

CCCCCCCCCCCCCCCC(=O)N[C@H]1CCOC1=O [BIA-H1500]
NFF_Activity ([2]; NFF cells, screen at 5 µg/mL): I (otherwise these were reported as inactive (I))
T.vaginalis_%inb_Rep1 [3, 12]: 13.84%
T.vaginalis_%inb_Rep2 [3, 13]: 11.55%

CC[C@H]1C[C@@H]2CC[C@@H](O2)[C@@H](C)C(=O)O[C@H](CC)C[C@H]2CC[C@H](O2)[C@H](C)C(=O)O[C@@H](C)C[C@@H]2CC[C@@H](O2)[C@@H](C)C(=O)O[C@H](CC)C[C@H]2CC[C@H](O2)[C@H](C)C(=O)O1 [Trinactin]
NFF_Activity [2, 17]: I (otherwise these were reported as inactive (I))
T.vaginalis_%inb_Rep1 [3, 18]: 11.27%
T.vaginalis_%inb_Rep2 [3, 19]: 13.47%

CN(N=O)C(=O)N[C@@H]1[C@@H](O)[C@H](O)[C@@H](CO)O[C@@H]1O [BIA-S1186]
NFF_Activity [2, 9]: I (otherwise these were reported as inactive (I))
T.vaginalis_%inb_Rep1 [3, 10]: 9.02%
T.vaginalis_%inb_Rep2 [3, 11]: 7.62%

C=C[C@@](C)(CCC=C(C)C)c1ccc2c3c(c[nH]c13)C[C@@H](CO)NC(=O)[C@H](C(C)C)N2C [BIA-T1429]
NFF_Activity [2, 9]: I (otherwise these were reported as inactive (I))
T.vaginalis_%inb_Rep1 [3, 10]: 11.80%
T.vaginalis_%inb_Rep2 [3, 11]: 16.64%

CN1C(=O)c2ccccc2-n2c(nc3ccccc3c2=O)C12OC2c1ccccc1 (stereo not shown) [BIA-B1679]
NFF_Activity [2, 6]: I (otherwise these were reported as inactive (I))
T.vaginalis_%inb_Rep1 [3, 7]: 16.96%
T.vaginalis_%inb_Rep2 [3, 8]: 15.26%

CCCCCCCCCCCC(=O)N[C@H]1CCOC1=O [Dodecanoyl-L-homoserine lactone]
NFF_Activity ([2]; NFF_NS1 screen at 5 µg/mL): I (otherwise these were reported as inactive (I))
T.vaginalis_%inb_Rep1 [3, 18]: 9.75%
T.vaginalis_Absorbance_Rep1 [3, 20]: 0.89
T.vaginalis_%inb_Rep2 [3, 19]: 12.87%
T.vaginalis_Absorbance_Rep2 [3, 20]: 0.798
